Reference: patent EP2535049A1 (Proyecto de Biomedicina Cima, S.L., priority 2011, dated 2012)
Entries after “also recorded” stand apart in the source; their conditions may differ.

Key:
[1] = test system: J20 mouse model of AD; assay: Morris water maze in J20 mouse model of AD; format: in vivo, mice; conditions: for escape latencies in the hidden platform phase: 4-week treatment, 15 mg/kg/day orally, 20 month old J20 mice, data not shown; for MWM performance, escape latencies in the invisible platform phase / percentage of time spent in the right quadrant (memory retention): 10 weeks of treatment; for MWM performance, escape latencies in the invisible platform phase: 15 mg/Kg orally once daily, 21-22 month-old J20 mice, vs saline; for percentage of time spent in the right quadrant (memory retention): platform removed, days 7 and 9, 15 mg/Kg, J20 mice, randomness = 25%
Procedure: Transgenic mice overexpressing human amyloid precursor protein (hAPP) with the Swedish (K670N/M671L) and Indiana (V717F) familial AD mutations under control of the PDGF β-chain promoter were used (J20 line) (Mucke et al, 2000). The mice were on an inbred C57BL/6J genetic background. […] Results were compared with those obtained from age-matched negative littermates (controls). To test the effect of the PDE5 inhibitors in cognition capacity related to aging, a second treatment was carried out using 10-12 month-old non-transgenic (wild type) mice on an inbred C57/B6xSJL genetic background. […] The MWM test was used to evaluate spatial memory as previously described (Hsiao et al., 1996; Reed et al., 2010; Ricobaraza et al., 2009). After treatments, groups of animals underwent spatial reference learning and memory testing in the MWM. The water maze was a circular pool (diameter 1.2 m) filled with water maintained at 20 °C and made opaque by the addition of non-toxic white paint. Mice were trained for three consecutive days (8 trials/day) swimming to a raised platform (visible-platform). No distal visible cues were present during this phase. The same platform location was used for all visible-platform sessions and was changed for the invisible-platform training (submerged 1 cm beneath the surface) conducted over […] (4 trials/day) with all visible distal cues present in this phase. In both visible- and hidden-platform versions, mice were placed pseudo-randomly in selected locations, facing toward the wall of the pool to eliminate the potentially confounding contribution of extramaze spatial cues. Each trial was terminated when the mouse reached the platform or after 60 seconds, whichever came first. To test the retention, three probe trials were performed at the beginning of 4th, 7th, and the last day of the test (day 9). In the probe trials the platform was removed from the pool, and the percentage of time spent in the quadrant where the platform was previously set was recorded. All trials were monitored by a camera above the center of the pool connected to a SMART-LD program (Panlab S.L., Barcelona, Spain) for subsequent analysis of escape latencies, swimming speed, path length and percent time spent in each quadrant of the pool during probe trials. All experimental procedures were performed blind to groups.

[2] = test system: pTau; assay: Western blot of pTau in hippocampus of J20 mice; format: in vivo; conditions: J20 mice (22-month-old) treated for 10 weeks, normalized to total Tau
Procedure: (§1) Results were compared with those obtained from age-matched negative littermates (controls). To test the effect of the PDE5 inhibitors in cognition capacity related to aging, a second treatment was carried out using 10-12 month-old non-transgenic (wild type) mice on an inbred C57/B6xSJL genetic background.
(§2) Twenty four hours after the fear conditioning test, animals (n=5, per group) were sacrificed and the brains removed for biochemical studies. The cortex and hippocampus were dissected, homogenized, and processed as described below for subsequent western blot analysis. Under xylazine/ketamine anesthesia, animals (n=4 per group) were perfused transcardially with saline and 4% paraformaldehyde in phosphate buffer (PB). After perfusion, brains were removed, post-fixed in the same fixative solution for 1 h at room temperature and cryoprotected in 30% sucrose solution in PB overnight at 4 °C. Microtome sections (30-mm-thick) were cut coronally, collected free-floating and stored in 30% ethylene glycol, 30% glycerol, and 0.1M PB at - 20 °C until processed.
(§3) Total tissue homogenates were obtained by homogenizing the hippocampus in a cold lysis buffer with protease inhibitors (0.2 M NaCl, 0.1 M HEPES, 10% glycerol, 200 mM NaF, 2 mM Na4P2O7, 5 mM EDTA, 1 mM EGTA, 2 mM DTT, 0.5 mM PMSF, 1 mM Na3VO4, 1 mM benzamidine, 10 µg/ml leupeptin, 400 U/ml aprotinin), centrifuged at 14,000 x g 4 °C for 20 minutes and the supernatant was aliquoted and stored at -80 °C. Total protein concentrations were determined using the BioRad Bradford protein assay (BioRad Laboratories).
Protein samples were mixed with an equal volume of 2 x Laemmli sample buffer, resolved onto SDS-polyacrylamide gels and transferred to nitrocellulose membrane. […] Following two washes in PBS/Tween-20 or TBS/Tween-20 and one PBS or TBS alone, immunolabeled protein bands were detected by using HRP-conjugated anti-rabbit or anti-mouse antibody (Santa Cruz; dilution 1:5000) following an enhanced chemiluminescence system (ECL, GE Healthcare Bioscience, Buckinghamshire, UK), and autoradiographic exposure to Hyperfilm™ECL (GE Healthcare Bioscience). Quantity OneTM software v.4.6.3 (Bio-Rad) was used for quantification.

[3] = test system: pAkt; assay: Western blot of pAkt in hippocampus of J20 mice; format: in vivo; conditions: J20 mice treated for 10 weeks, vs saline
Procedure: as §1
Twenty four hours after the fear conditioning test, animals (n=5, per group) were sacrificed and the brains removed for biochemical studies. The cortex and hippocampus were dissected, homogenized, and processed as described below for subsequent western blot analysis. […]
as §3
Protein samples were mixed with an equal volume of 2 x Laemmli sample buffer, resolved onto SDS-polyacrylamide gels and transferred to nitrocellulose membrane. […] Quantity OneTM software v.4.6.3 (Bio-Rad) was used for quantification.

[4] = test system: AD mouse models; conditions: Puzzo et al., 2009; cited from earlier work
[5] = test system: pTau; assay: Immunohistochemistry of pTau (PHF-1, AT8) in J20 mice; format: in vivo; conditions: J20 mice treated for 10 weeks
Procedure: as §1
as §2, with “Microtome sections (30-mm-thick) were cut coronally, collected free-floating and stored in 30% ethylene glycol, 30% glycerol, and 0.1M PB at - 20 °C until processed.” left out
For p-tau staining, slides were incubated in blocking solution (3% milk in TBS) and incubated overnight with primary antibody AT8 (1:50 v/v, Pierce, Woburn, MA, USA) or PHF1 (1:100 v/v, Dr. Peter Davies, Albert Einstein College, Bronx, NY, USA) at 4 °C. […] Fluorescence signals were detected with confocal microscope LSM 510 Meta (Carl Zeiss, Germany); objective Plan-neofluar 40x/1.3 oil DIC. Sections were evaluated in Z-series (0.4 microm steps) using LSM 510 Meta software.

Structure (SMILES)	escape latencies in the hidden platform phase [1]	MWM performance, escape latencies in the invisible platform phase [1]	percentage of time spent in the right quadrant (memory retention) [1]	pTau levels (AT8) by Western blotting [2]	level of pAkt [3]	effect on memory in AD mouse models [4]	MWM performance, escape latencies in the invisible platform phase ([1]; 15 mg/kg)	pTau levels, PHF-1 anti-p-Tau Ser-396/404 antibody labeling ([5]; hippocampal and cortical slices)	pTau pathology, anti-pTau antibody recognizing Ser202 and Thr205 (AT8) labeling ([5]; hippocampus slices)	pTau levels (PHF1) by Western blotting [2]	pTau levels (AT8) by Western blotting ([2]; listed as Tadalafil)
CCCc1nn(C)c2c(=O)[nH]c(-c3cc(S(=O)(=O)N4CCN(C)CC4)ccc3OCC)nc12 [sildenafil]	no significant differences were detected	markedly improves the performance	higher than 25%	decrease in Tau pathology	reduction was reverted	efficacious drug in improving memory					
CN1CC(=O)N2[C@H](c3ccc4c(c3)OCO4)c3[nH]c4ccccc4c3C[C@@H]2C1=O [tadalafil, (6R-trans)-6-(1,3-benzodioxol-5-yl)-2,3,6,7,12,12a-hexahydro-2-methyl-pyrazino [1',2':1,6] pyrido [3,4-b]indole-1,4-dione]	no significant differences were detected		higher than 25%	decrease in Tau pathology	reduction was reverted; also recorded: higher than that of sildenafil	no effect was demonstrated	even better than those of non-transgenic mice; also recorded: cognitive improvement was higher in the group of tadalafil than in the group of sildenafil; also recorded: markedly improves the performance	decrease in pTau levels; also recorded: much more marked than in animals treated with sildenafil	lesser pTau pathology in animals treated with tadalafil than with sildenafil	more marked in tadalafil-treated mice	even more effective than sildenafil
